Marks after values point to notes of the source that are not given here.
Experiments:
[1] = in vivo; conditions: rat
Description: Absolute extraction recovery (AbsER): Bone is a heterogeneous tissue and, unlike with a plasma or urine method validation, the extraction recovery cannot be determined with a drug spiked rat bone QC sample. Therefore, it is necessary to measure a virtual known amount of drug in an incurred rat bone sample to determine the absolute extraction recovery. Using combusted IncRB samples from Group B (rats administered radio labeled ^14C-tigecycline), the amount of labeled drug in bone was measured using a liquid scintillation counter. Four aliquots of IncRB Group B (0.1 grams) were accurately weighed, placed into combustion cones, and allowed to air dry for approximately 3 days. These 4 samples were then oxidized in a Model 307/Oximate 80 sample oxidizer, using Carbosorb® E (7 ml) as a trapping agent and PermalFluor® ET (10 ml) as a scintillant. […] The oxidized samples were counted in a Packard (Perkin Elmer) liquid scintillation counter (LSC) using a toluene standard curve. The ng-equiv/ml concentrations were calculated using specific activity of the dosing solution.
In parallel, five aliquots of IncRB Group B (0.1 gram) were weighed. […]
The absolute extraction recovery was determined using the following equation: […]
[total amount of tigecycline per gram of bone (Group B, determined by LC/MS/MS)]/[total amount of tigecycline per gram of bone (Group B, after combustion as determined by LSC)]×100

[2] = Stability of tigecycline in incurred rat bone and in extracted rat bone sample; type: physicochemical
Description: Stability tests for tigecycline in IncRB reference QC samples or incHB QC samples were conducted in 4 cycles of freeze/thaw for IncRB QC and (3 cycles for IncHB QC of −70° C./22° C.) and in standard bench top (22° C.) stability (4 hours for rat bone and 6 hours for human bone) tests. These tests occurred during sequential extraction from run 1 through run 3. Bench top stability of IncRB reference QC samples (4 hours at room temperature) and incurred human bone sample (6 hours at room temperature), and extracted tigecycline from the IncRB and incurred human reference QC samples in the autosampler at 4° C. were evaluated during the method validation. Autosampler stability of tigecycline in IncRB Group B sample (^14C) was employed as the sample pool because aliquots from IncRB Group A were exhausted from prior testing. Results were plotted as the peak area ratio against time. The 54-hour autosampler stability of incurred human bone was performed by comparing extracted samples injected immediate after extraction (baseline) with the same set of extracted samples re-injected after 54 hours of storage at 4° C., regressed with a standard curve injected immediately after extraction (baseline).

## CN(C)c1cc(NC(=O)CNC(C)(C)C)c(O)c2c1C[C@H]1C[C@H]3[C@H](N(C)C)C(O)=C(C(N)=O)C(=O)[C@@]3(O)C(O)=C1C2=O [tigecycline, Tigecycline]
[1]
  concentration at 4 h: 3190 ng/g
[1]; 4 h
  Measured conc.: 4137^a ng-equivalent/g of bone
[2]; after 4 cycles of freeze/thaw (−70° C./22° C.)
  Freeze/thaw stability in incurred rat bone: stable
[2]; after 4 hours at room temperature
  Bench top stability in incurred rat bone: stable
[2]; extracted sample at 4° C., no stabilizing agent
  Stability of extracted tigecycline from IncRB samples: 8.5 h
[2]; stored at −70° C.
  Storage stability in incurred rat bone: at least 5 months
[2]; within 5 hours, no stabilizing agent
  Re-injection stability of extracted tigecycline: 5 re-injections

From patent US20070259439A1, “Determination of antibiotic concentration in bone” (Wyeth, priority 2006, published 2007)
